Reference: patent US20020082241A1, “Adenosine as antithrombotic” (priority 2000, published 2002)

What was measured:
platelet aggregation = experiment: ADP-activated platelet aggregation assay; format: cell-based
Method: To assay the platelet aggregation-inhibiting activity of the compound, a regular ADP-activated platelet aggregation assay was performed. The reagents used for conducting the assay were purchased from Sigma. […] The maximal inhibition activity was about 85%, which occurs at the concentration of the compound from 10 to 15 μg/ml blood.

[1] = test system: thrombus formation in mesenteric vein; experiment: thrombus formation in vivo in mesenteric vein of rats (electrical stimulation); conditions: rat
Method: The thrombus formation in vivo in mesenteric vein of rats was used for evaluating an effect of the compound on the inhibition of venous thrombosis. In brief, groups of 3 male Wistar-derived rats, each weighing 60±10 gm, were used for each dosage test. The rats were anesthetized with phenobarbital sodium (50 mg/kg, i.p.), and paralyzed with succinylcholine chloride (2 mg/rat, i.p.). A mesenteric loop and vein was then exposed and mounted on a constructed platform. The exposed area was superfused with a normal saline at 37° C. except during electrode placement and stimulation. With the aid of a dissecting microscope and micromanipulator, a monopolar platinum electrode was brought into and contact with the vein. […] The relative venous occlusion (a measured degree of thrombus formation) was determined as a percentage of venous diameter (0.36 to 0.3 8 mm) and was recorded at 10 seconds (baseline control score) and at 1 minute interval for 20 minutes. […] In the vehicle-treated animals, the 20-minute interval recorded values were averaged, which attains a value ranging from 45 to 55% of the interval vein diameter. Consequently, the antithrombic activity of the compound was calculated as % of inhibition relative to the vehicle-treated control animals. […]

[2] = molecular target: T1, platelet membrane receptor protein gpIIb/IIIa (Homo sapiens, UniProt P05106+P08514); experiment: gpIIb/IIIa binding assay with compound spotted on plate and labeled gpIIb/IIIa; conditions: concentration of the compound below 10 μg/ml; serial dilution 0 to 50 μg/ml; FIG. 5
T1 construct: platelet membrane receptor protein gpIIb/IIIa was purified from platelets; from tissue; host or cells: platelets
T1 sequence (P08514 32-887 limits assumed): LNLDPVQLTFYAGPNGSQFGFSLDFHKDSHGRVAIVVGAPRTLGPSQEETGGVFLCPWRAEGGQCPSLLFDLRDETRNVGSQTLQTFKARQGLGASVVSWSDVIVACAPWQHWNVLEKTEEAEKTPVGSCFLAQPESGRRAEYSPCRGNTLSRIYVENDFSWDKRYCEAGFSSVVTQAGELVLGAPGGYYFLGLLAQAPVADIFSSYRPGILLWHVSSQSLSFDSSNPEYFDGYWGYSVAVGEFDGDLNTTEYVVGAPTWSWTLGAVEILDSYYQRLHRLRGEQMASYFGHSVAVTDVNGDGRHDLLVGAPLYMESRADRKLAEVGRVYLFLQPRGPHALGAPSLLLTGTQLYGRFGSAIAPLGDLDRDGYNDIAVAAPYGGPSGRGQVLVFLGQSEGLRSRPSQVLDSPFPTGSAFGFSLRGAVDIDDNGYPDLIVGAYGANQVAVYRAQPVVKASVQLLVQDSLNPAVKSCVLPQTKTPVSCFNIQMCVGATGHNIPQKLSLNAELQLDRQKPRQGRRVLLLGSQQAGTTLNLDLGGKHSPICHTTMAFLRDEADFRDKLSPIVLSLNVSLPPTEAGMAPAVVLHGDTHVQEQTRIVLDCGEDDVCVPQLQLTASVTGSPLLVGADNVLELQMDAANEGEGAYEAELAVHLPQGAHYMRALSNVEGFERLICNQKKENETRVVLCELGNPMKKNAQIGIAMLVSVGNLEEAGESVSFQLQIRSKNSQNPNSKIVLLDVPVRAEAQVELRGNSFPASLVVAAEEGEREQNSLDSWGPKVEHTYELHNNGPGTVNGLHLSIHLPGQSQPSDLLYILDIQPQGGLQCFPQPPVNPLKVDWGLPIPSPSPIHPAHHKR
T1 sequence (P08514 891-1039 limits assumed): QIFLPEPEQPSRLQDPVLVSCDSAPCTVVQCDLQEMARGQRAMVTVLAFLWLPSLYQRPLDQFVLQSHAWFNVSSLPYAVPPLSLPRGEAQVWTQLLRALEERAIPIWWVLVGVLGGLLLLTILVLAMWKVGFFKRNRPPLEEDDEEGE
T1 sequence (P05106 27-788): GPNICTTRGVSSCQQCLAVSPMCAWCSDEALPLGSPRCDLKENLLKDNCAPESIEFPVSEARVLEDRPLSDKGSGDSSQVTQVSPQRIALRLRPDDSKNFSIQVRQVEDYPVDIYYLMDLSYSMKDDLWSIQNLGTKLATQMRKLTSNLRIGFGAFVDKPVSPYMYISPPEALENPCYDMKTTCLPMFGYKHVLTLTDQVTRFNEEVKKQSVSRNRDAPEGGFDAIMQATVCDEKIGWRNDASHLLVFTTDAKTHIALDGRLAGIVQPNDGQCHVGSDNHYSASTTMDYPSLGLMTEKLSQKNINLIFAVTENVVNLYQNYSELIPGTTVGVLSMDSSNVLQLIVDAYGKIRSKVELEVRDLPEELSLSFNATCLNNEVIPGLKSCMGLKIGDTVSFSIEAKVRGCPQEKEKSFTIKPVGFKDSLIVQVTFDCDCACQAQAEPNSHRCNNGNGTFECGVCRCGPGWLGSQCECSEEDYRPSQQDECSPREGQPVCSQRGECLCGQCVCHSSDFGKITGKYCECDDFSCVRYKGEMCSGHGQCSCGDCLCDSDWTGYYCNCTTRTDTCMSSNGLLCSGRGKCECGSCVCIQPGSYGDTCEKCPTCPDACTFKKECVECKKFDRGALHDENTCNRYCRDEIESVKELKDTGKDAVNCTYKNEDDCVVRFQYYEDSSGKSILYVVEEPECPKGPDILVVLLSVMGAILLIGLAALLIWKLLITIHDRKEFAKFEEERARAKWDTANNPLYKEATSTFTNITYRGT
Method: For conducting the target-binding assay, platelet membrane receptor protein gpIIb/IIIa was purified from platelets, and its purity was determined by SDS-PAGE and silver staining. The purified protein gpIIb/IIIa was labeled with biotin as described in the conventional protocol. The 120 collected samples were individually coated onto a 384-well plastic plate. The biotin-labeled protein gpIIb/IIIa was added to the sample-coated plastic plate and was incubated with the coated samples at room temperature for 30 minutes. Each well was then washed with TBST buffer for 3 times, to which the extravidin-conjugated alkaline phosphatase was added, and each well was further incubated for 30 minutes. The previous washing step was repeated and each well was then colored with substrate p-nitrophenyl phosphate. The absorption for each well at a wavelength of 405 nm was determined by an automatic ELISA reader (Dynax). […] The compound “adenosine” obtained from Example 4 was used as a standard for the characterization of each batch preparation of the compound. The compound, when purified, was collected, dried and used to verify its gpIIb/IIIa binding capacity. For conducting the binding assay, the compound was formulated into an aqueous solution, and a serial dilution for forming a final concentration of 0 to 50 μg/ml was made. […]

[3] = molecular target: T2, gpIIb/IIIa (binding of fibrinogen) (Homo sapiens, UniProt P05106+P08514); experiment: competitive ELISA for inhibition of the binding of fibrinogen to gpIIb/IIIa; conditions: samples 5-60 μg/ml; biotin-labeled fibrinogen 1.5 μg/ml; 37° C.; OD value; FIG. 8
T2 construct: The gpIIb/IIIa purified from platelet was coated on flat wells of a plastic 96-well plate; from tissue; host or cells: platelets
T2 sequence (P08514 32-887 limits assumed): as the sequence (P08514 32-887 limits assumed) above
T2 sequence (P08514 891-1039 limits assumed): as the sequence (P08514 891-1039 limits assumed) above
T2 sequence (P05106 27-788): as the sequence (P05106 27-788) above
Method: A competitive ELISA assay for analyzing that the binding of fibrinogen to gpIIb/IIIa is inhibited was performed for comparative analysis, where the compound, commercial adenosine (a product from Sigma, Cat. A-9251, Lot. 18H0295) and ReoPro® (abciximab) (10 mg/ml; produced by Eli Lilly for laboratory use only, Lot. 97F03, which is a monoclonal antibody and an antagonist against gpIIb/IIIa) were tested. The gpIIb/IIIa purified from platelet was coated on flat wells of a plastic 96-well plate. Samples of each of the test compounds were prepared in a concentration in a range of 5-60 μg/ml. A solution of biotin-labeled fibrinogen was prepared in a concentration of 1.5 μg/ml. Prior to addition to the wells, each of the samples were individually mixed with an equal volume of the biotinylated fibrinogen. The competitive binding reaction in the plate was performed at 37° C. for 2 hours. After another 2 hours for incubation, strepavidin-conjugated alkaline phosphatase was added to each well of the plate. A substrate solution containing p-nitrophenyl phosphate was then added to each well for coloring by a conventional way. The capability of each tested compound in the inhibition of the binding of fibrinogen to gpIIb/IIIa was measured and recorded as OD value.

[4] = acute toxicity in adult rats, single intravenous dose; format: in vivo; conditions: rat, single i.v. dose, up to approximately 70 mg/kg (69.55±5.65 mg/kg), necropsy Day 8
Method: The potential acute toxicity of the compound in adult rats when administered intravenously as a single dose was examined. Twenty animals were divided into five treatment groups of two males and two females each as follows: Group 1: vehicle control; Group 2: 1 mg of the compound/kg body weight of animal; Group 3: 10 mg of the compound/kg body weight of animal; Group 4: 50 mg of the compound/kg body weight of animal; and Group 5: 100 mg of the compound/kg body weight of animal. The tested article was reconstituted with 0.9% sodium chloride injection to provide 0.64±0.05 mg/kg (Group 2), 6.89±1.13 mg/kg (Group 3), 35.02±5.02 mg/kg (Group 4) and 69.55±5.65 mg/kg (Group 5). Animals were dosed on Day 1, and scheduled necropsies conducted on Day 8 included gross examination of organs and tissues, organ weight measurements, and tissue collection for potential histopathological examination. It was found in the compound treatment groups that there was no change in clinical observations, serum chemistry, hematology, gross examination, body weight and organ weight (absolute and relative) that could be attributed to the compound.

Nc1ncnc2c1ncn2[C@@H]1O[C@H](CO)[C@@H](O)[C@H]1O [the compound, adenosine]
inhibition at 17.4 µg/mL (platelet aggregation; Platelet, 17.4 μg/ml, occurring from the 14th to 16th minutes, FIG. 6B, read-out: maximal inhibition activity on platelet aggregation (time course)): ~85% | maximal inhibition activity on platelet aggregation (dose response) (platelet aggregation; at concentration from 10 to 15 μg/ml blood, FIG. 6A): about 85% | antithrombic activity relative to vehicle treated group, i.v. ([1]; 400 μg/rat i.v. 5 minutes before stimulation, at 7, 11, 12, 13, 14, 15, 16, 17 and 19 minutes after electric stimulation, FIG. 7A): significance relative to the vehicle treated group | antithrombic activity relative to vehicle treated group, oral ([1]; 4 mg/rat oral feeding 1 hour prior to stimulation, observed at 14, 15, 16, 17, 18 and 20 minutes, FIG. 7C): significant antithrombic activity | binding to gpIIb/IIIa, % of the maximal binding [2]: 80% | inhibition of the binding of fibrinogen to gpIIb/IIIa, compared with ReoPro (abciximab) [3]: superior effect | inhibition of the binding of fibrinogen to gpIIb/IIIa, the compound compared with commercial adenosine [3]: quite similar function | acute toxicity [4]: No signs of overt toxicity | acute toxicity ([4]; listed as adenosine): no acute toxicity
